Source: PMC8991960, “A Bivalent Activatable Fluorescent Probe for Screening and Intravital Imaging of Chemotherapy‐Induced Cancer Cell Death” (Angewandte Chemie (International Ed. in English), 2021)

Test system: 8 cancer cell lines
Experiment: Classification of drugs by Apotracker Red (apoptosis) and CellTrace Violet (proliferation) staining
Format: cell-based
Conditions: 24 h treatment; for Drug group by Apotracker Red (apoptosis) and CV (proliferation) staining: 8 cell lines, single-dose screen; for Effect on cell proliferation (CellTrace Violet): CellTrace Violet 1 µM, Figure S8
Method: To corroborate the versatility of Apotracker Red, we built a screening platform including a total of 8 cancer cell lines of variable origin and pathogenesis: breast (MCF7, MDA‐MB231 and MMTV‐PyMT (mouse mammary tumour virus‐polyoma middle tumour‐antigen)[23]), lung (A549), prostate (PC3 and LnCap), blood cells (Jurkat) and colon (HT29). All cell lines were cultured under standard conditions and seeded with the fluorescent proliferation marker CellTrace^TM Violet (CV) in 96‐well plates (10–20×10^3 cells/well) for high‐throughput flow cytometry. After drug treatment (i.e., drug addition plus 24 h incubation), Apotracker Red was incubated for 10 min and fluorescence readings were directly acquired without any additional processing steps (Figure 3 a). […] Using this platform, we tested a collection of FDA‐approved drugs in all cancer cell lines and compared their ability to induce apoptosis using Apotracker Red as the reporter. Specifically, we included DNA alkylation agents (e.g., cyclophosphamide, cisplatin, 5‐fluorouracil, gemcitabine, temozolomide), proteasomal and mitotic inhibitors (e.g., bortezomib, docetaxel, paclitaxel) and antagonists of specific proteins (e.g., dexamethasone, tamoxifen; Figure 3 b).
First, all drugs were tested in the 8 different cell lines to determine the percentages of Apotracker Red‐stained apoptotic cells compared to no treatment (Figure 3 c; Figure S8). […] All 5 drugs were tested at multiple concentrations (from 1 to 100 μM) and with incubation times up to 48 h to examine whether drugs could block cell proliferation at late stages (Figures S9–S13).
Figure S8. Heatmap of relative inhibition of cell proliferation (as indicated by staining of CellTraceTM Violet) after treatment of cancer cell lines with different drugs. Data presented as an average of 3 independent experiments. Cells were stained on day 0 with CellTraceTM Violet (1 µM) and mean fluorescence intensities were determined on the 5L LSR after 24 h of treatment with the different drugs.
(1 picture or pasted object on this page, not shown here) […]
Cell culture. MCF-7, A549, LnCap, MDA-MB-231, Jurkat T cells and PC3 cells were obtained from American Type Culture Collection (ATCC). HT29 cells were purchased from Merck (S i g m a Aldrich, UK). Mouse Mammary Tumour Virus –Polyoma Middle T antigen (MMTV -PyMT) cells were provided by the lab of Mikala Egeblad (CSHL, US). MMTV-PyMT, MCF-7, LnCap, MDA-MB-231 and Jurkat T cells were cultured in Roswell Park Memorial Institute (RPMI) 1640 Medium supplemented with 10% fetal bovine serum (FBS) , 100 U mL-1 penicillin and 0.1 mg mL-1 streptomycin. A549 and PC3 cells were cultured in Dublecco’s modified Eagle’s medium (DMEM) supplemented with 10% fetal bovine serum (FBS), 100 U mL-1 penicillin and 0.1 mg […]
Flow cytometry drug screen.

Row | SMILES | Drug group by Apotracker Red (apoptosis) and CV (proliferation) staining | Effect on cell proliferation (CellTrace Violet)
1 | CC(C)C[C@H](NC(=O)[C@H](Cc1ccccc1)NC(=O)c1cnccn1)B(O)O [bortezomib] | induced apoptosis with little reduction of cell proliferation | very minor effects on cell proliferation
2 | C[C@@H]1C[C@H]2[C@@H]3CCC4=CC(=O)C=C[C@]4(C)[C@@]3(F)[C@@H](O)C[C@]2(C)[C@@]1(O)C(=O)CO [dexamethasone] | had no impact on proliferation or apoptosis | –
3 | CC(=O)O[C@@]12CO[C@@H]1C[C@H](O)[C@@]1(C)C(=O)[C@H](O)C3=C(C)[C@@H](OC(=O)[C@H](O)[C@@H](NC(=O)OC(C)(C)C)c4ccccc4)C[C@@](O)([C@@H](OC(=O)c4ccccc4)[C@H]21)C3(C)C [docetaxel] | inhibited cell proliferation but showed little or no induction of apoptosis | –
4 | CC(=O)O[C@H]1C(=O)[C@@]2(C)[C@H]([C@H](OC(=O)c3ccccc3)[C@]3(O)C[C@H](OC(=O)[C@H](O)[C@@H](NC(=O)c4ccccc4)c4ccccc4)C(C)=C1C3(C)C)[C@]1(OC(C)=O)CO[C@@H]1C[C@@H]2O [paclitaxel] | induced apoptosis with little reduction of cell proliferation | very minor effects on cell proliferation
5 | Cn1nnc2c(C(N)=O)ncn2c1=O [temozolomide] | inhibited cell proliferation but showed little or no induction of apoptosis | –
